In patent publication EP0293294A2, “Imidazo[1,2-a]pyrimidines and their salts, process and intermediates for their preparation, their use as medicaments and compositions containing them” (ROUSSEL-UCLAF, priority 1987, dated 1988) one finds IC50 data, which are given here for 5 compounds.

The structures appear in SMILES notation.

In this experiment the target is récepteurs des benzodiazépines. As to the kind of experiment: Benzodiazepine receptor binding, [³H] flunitrazépam displacement (modified Squires and Braestrup method). To be noted: concentration inhibiting by 50% the specific binding of 0,6 nanomoles of [³H] flunitrazépam; rat forebrain membrane preparations; read-out: Liaison aux récepteurs CI50. More on the design: species or system rats. An excerpt:
L'affinité des composés pour les récepteurs des benzodiazépines a été évaluée en utilisant un radioligang [³H] flunitrazépam et la méthode de Squires et Braestrup (Nature, 1977, 266, 732) modifiée.
Les valeurs indiquées dans le tableau II ci-après sont les concentrations nanomolaires du produit testé qui inhibent dans une proportion de 50% la liaison spécifique de 0,6 nanomoles de [³H] flunitrazépam dans des préparations de membranes de cerveaux antérieurs de rats [(CI₅₀)en nanomoles].

With `CCOC(=O)[C@@H]1C[C@H]1C(=O)c1cn2c(C)c(CC)c(OC)nc2n1` (relative stereo) [Exemple 1, trans 2-(6-éthyl 7-méthoxy 5-méthylimidazo [1,2-a]pyrimidin-2-oyl) cyclopropane carboxylate d'éthyle], the IC50 was 0.56 µM.
For `CCc1c(OC)nc2nc(C(=O)[C@@H]3C[C@H]3C)cn2c1C` (relative stereo) [Exemple 5, trans (6-éthyl 7-méthoxy 5-méthylimidazo [1,2-a]pyrimidin-2-yl) 2-méthyl cyclopropyl méthanone], the IC50 was determined as 1.78 µM.
Next, `COc1nc2nc(C(=O)[C@@H]3C[C@H]3Cl)cn2c2c1CCCC2` (relative stereo) [Exemple 6, trans (6,7,8,9-tétrahydro 5-méthoxyimidazo [1,2 a]quinazolin--yl) 2-chlorocyclopropyl méthanone]: 0.18 µM.
The figure for `COc1nc2nc(C(=O)[C@@H]3C[C@H]3C#N)cn2c2c1CCCC2` (relative stereo) [Exemple 11, trans 2-(6,7,8,9-tétrahydro 5-méthoxyimidazo [1,2-a]quinazolin-2-oyl) cyclopropane carbonitrile] is 1 µM; for `COc1nc2nc(C(=O)C3(C)CC3)cn2c2c1CCCC2` [Exemple 4, (6,7,8,9-tétrahydro 5-méthoxyimidazo [1,2-a]quinazolin-2-yl) 1-méthyl cyclopropyl méthanone] it is 6.3 µM.
